The values below come from US9663513B2, “Pyrimidine PDE10 inhibitors” (Merck Sharp & Dohme Corp., priority 2012, dated 2017).

This test has as its target human PDE10A2 (Homo sapiens (Human), UniProt Q9Y233). Briefly: PDE10 fluorescence polarization (IMAP FP) inhibition assay. Particulars: human PDE10A2 from transfected AD293 cells; FAM-labeled cAMP 50 nM; apparent inhibition constant; read-out: PDE10A Ki. It counts as biochemical. The method in brief: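 Cytoplasmic lysate of AD293 cells transiently expressing human PDE10A2 (enzyme level giving 20% conversion) incubated with 50 nM FAM-cAMP in pH 7.2 Tris/MgCl2 buffer, 30 min at room temperature. IMAP binding solution added, FP read after ≥1 h; 10-point 3-fold compound titrations fitted to a four-parameter equation.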

Chain of human PDE10A2 (Q9Y233 267-1055): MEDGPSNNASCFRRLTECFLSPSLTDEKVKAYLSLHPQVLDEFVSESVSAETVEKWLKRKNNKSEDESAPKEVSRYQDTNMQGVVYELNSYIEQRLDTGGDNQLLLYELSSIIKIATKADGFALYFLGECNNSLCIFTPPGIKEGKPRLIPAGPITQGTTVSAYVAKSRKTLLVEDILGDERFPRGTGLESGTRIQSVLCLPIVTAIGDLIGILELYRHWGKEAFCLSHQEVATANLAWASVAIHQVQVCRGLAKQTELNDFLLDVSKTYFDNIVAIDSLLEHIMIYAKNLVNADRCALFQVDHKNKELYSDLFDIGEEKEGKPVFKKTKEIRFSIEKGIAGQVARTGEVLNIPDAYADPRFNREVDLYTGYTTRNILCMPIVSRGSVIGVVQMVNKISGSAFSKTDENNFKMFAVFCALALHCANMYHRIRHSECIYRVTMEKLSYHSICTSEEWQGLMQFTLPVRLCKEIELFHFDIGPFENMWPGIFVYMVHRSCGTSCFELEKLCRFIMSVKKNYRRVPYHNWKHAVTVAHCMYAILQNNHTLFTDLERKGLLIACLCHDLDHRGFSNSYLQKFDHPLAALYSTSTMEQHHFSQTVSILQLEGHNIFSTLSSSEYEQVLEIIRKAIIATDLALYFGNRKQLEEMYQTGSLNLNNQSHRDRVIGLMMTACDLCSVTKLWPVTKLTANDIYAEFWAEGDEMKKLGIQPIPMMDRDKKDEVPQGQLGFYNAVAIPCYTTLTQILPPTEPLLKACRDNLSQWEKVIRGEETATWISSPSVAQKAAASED

In the case of `CC[C@]1(O)CC[C@@H](c2cnc(C)nc2OC[C@H]2C[C@@H]2c2ccc(C)cn2)CC1` [Example 214, (cis)1-Ethyl-4-(2-methyl-4-(((1S,2S)-2-(5-methylpyridin-2-yl)cyclopropyl)methoxy)pyrimidin-5-yl)cyclohexanol], the Ki was 19.4 nM.

Consider `CC[C@]1(O)CC[C@H](c2cnc(C)nc2OC[C@H]2C[C@@H]2c2ccc(C)cn2)CC1` [Example 215, (trans)1-Ethyl-4-(2-methyl-4-(((1S,2S)-2-(5-methylpyridin-2-1)cyclopropyl)methoxy)pyrimidin-5-yl)cyclohexanol], for which the Ki worked out at 15.3 nM.

As to `CCOC(=O)[C@H]1CC[C@@H](c2cnc(C)nc2OC[C@H]2C[C@@H]2c2ccc(OC)cn2)CC1` [Example 216, cis-Ethyl4-(4-(((1S,2S)-2-(5-methoxypyridin-2-yl)cyclopropyl)methoxy)-2-methylpyrimidin-5-yl)cyclohexanecarboxylate], the Ki stood at 7.9 nM.

Turning to `COc1ccc([C@H]2C[C@@H]2COc2nc(C)ncc2[C@H]2CC[C@@H](C(=O)O)CC2)nc1` [Example 217, cis-4-(4-(((1S,2S)-2-(5-Methoxypyridin-2-yl)cyclopropyl)methoxy)-2-methylpyrimidin-5-yl)cyclohexanecarboxylic acid], the Ki amounted to 5.29 nM.

On to `Cc1ccc([C@H]2C[C@@H]2COc2nc(C)ncc2[C@H]2CC[C@@H](C(C)(C)O)CC2)nc1` [Example 221, (cis)2-(4-(2-methyl-4-(((1S,2S)-2-(5-methylpyridin-2-yl)cyclopropyl)methoxy)pyrimidin-5-yl)cyclohexyl)propan-2-ol], for which the Ki stood at 12.6 nM.

`COc1ccc([C@H]2C[C@@H]2COc2nc(C)ncc2-c2ccc(-c3nn[nH]n3)cc2)nc1` [Example 222, 5-(4-(1H-tetrazol-5-yl)phenyl)-4-(((1S,2S)-2-(5-methoxypyridin-2-yl)cyclopropyl)methoxy)-2-methylpyrimidine]: the Ki stood at 0.1 nM.

As to `COc1ccc([C@H]2C[C@@H]2COc2nc(C)ncc2-c2ccc(-c3nnn(C)n3)cc2)nc1` [Example 223, 4-(((1S,2S)-2-(5-methoxypyridin-2-yl)cyclopropyl)methoxy)-2-methyl-5-(4-(2-methyl-2H-tetrazol-5-yl)phenyl)pyrimidine], the Ki came out at 2.02 nM.

Regarding `COc1ccc([C@H]2C[C@@H]2COc2nc(C)ncc2-c2ccc(-c3nnnn3C)cc2)nc1` [Example 224, 4-(((1S,2S)-2-(5-methoxypyridin-2-yl)cyclopropyl)methoxy)-2-methyl-5-(4-(1-methyl-1H-tetrazol-5-yl)phenyl)pyrimidine], the Ki was found to be 1.08 nM.

`CCn1nnc(-c2ccc(-c3cnc(C)nc3OC[C@H]3C[C@@H]3c3ccc(OC)cn3)cc2)n1` [Example 225, 5-(4-(2-ethyl-2H-tetrazol-5-yl)phenyl)-4-(((1S,2S)-2-(5-methoxypyridin-2-yl)cyclopropyl)methoxy)-2-methylpyrimidine]: the Ki worked out at 1.42 nM.

In the case of `CCn1nnnc1-c1ccc(-c2cnc(C)nc2OC[C@H]2C[C@@H]2c2ccc(OC)cn2)cc1` [Example 226, 5-(4-(1-ethyl-1H-tetrazol-5-yl)phenyl)-4-(((1S,2S)-2-(5-methoxypyridin-2-yl)cyclopropyl)methoxy)-2-methylpyrimidine], the Ki was found to be 0.77 nM.

Regarding `COc1ccc([C@H]2C[C@@H]2COc2nc(C)ncc2-c2ccc(-c3nnn(C(F)F)n3)cc2)nc1` [Example 227, 5-(4-(2-(difluoromethyl)-2H-tetrazol-5-yl)phenyl)-4-(((1S,2S)-2-(5-methoxypyridin-2-yl)cyclopropyl)methoxy)-2-methylpyrimidine], the Ki stood at 3.3 nM.

Turning to `COc1ccc([C@H]2C[C@@H]2COc2nc(C)ncc2-c2ccc(-c3nnnn3C(F)F)cc2)nc1` [Example 228, 5-(4-(1-(difluoromethyl)-1H-tetrazol-5-yl)phenyl)-4-(((1S,2S)-2-(5-methoxypyridin-2-yl)cyclopropyl)methoxy)-2-methylpyrimidine], the Ki was found to be 2.06 nM.

As to `COc1ccc([C@H]2C[C@@H]2COc2nc(C)ncc2-c2ccc(-c3nn[nH]n3)nc2)nc1` [Example 229, 5-(6-(2H-tetrazol-5-yl)pyridin-3-yl)-4-(((1S,2S)-2-(5-methoxypyridin-2-yl)cyclopropyl)methoxy)-2-methylpyrimidine], the Ki was 0.13 nM.

Take `COc1ccc([C@H]2C[C@@H]2COc2nc(C)ncc2-c2ccc(-c3nnn(C)n3)nc2)nc1` [Example 230, 4-(((1S,2S)-2-(5-methoxypyridin-2-yl)cyclopropyl)methoxy)-2-methyl-5-(6-(2-methyl-2H-tetrazol-5-yl)pyridin-3-yl)pyrimidine]: the Ki came to 1.64 nM.

As for `COc1ccc([C@H]2C[C@@H]2COc2nc(C)ncc2-c2ccc(-c3nnnn3C)nc2)nc1` [Example 231, 4-(((1S,2S)-2-(5-methoxypyridin-2-yl)cyclopropyl)methoxy)-2-methyl-5-(6-(1-methyl-1H-tetrazol-5-yl)pyridin-3-yl)pyrimidine], the Ki stood at 1.78 nM.

`CCn1nnc(-c2ccc(-c3cnc(C)nc3OC[C@H]3C[C@@H]3c3ccc(OC)cn3)cn2)n1` [Example 232, 5-(6-(2-ethyl-2H-tetrazol-5-yl)pyridin-3-yl)-4-(((1S,2S)-2-(5-methoxypyridin-2-yl)cyclopropyl)methoxy)-2-methylpyrimidine]: the Ki was 0.77 nM.

For `CCn1nnnc1-c1ccc(-c2cnc(C)nc2OC[C@H]2C[C@@H]2c2ccc(OC)cn2)cn1` [Example 233, 5-(6-(1-ethyl-1H-tetrazol-5-yl)pyridin-3-yl)-4-(((1S,2S)-2-(5-methoxypyridin-2-yl)cyclopropyl)methoxy)-2-methylpyrimidine], the Ki was 1.16 nM.

For the molecule `COc1ccc([C@H]2C[C@@H]2COc2nc(C)ncc2-c2nn[nH]n2)nc1` [Example 234, 4-(((1S,2S)-2-(5-methoxypyridin-2-yl)cyclopropyl)methoxy)-2-methyl-5-(2H-tetrazol-5-yl)pyrimidine], the Ki is 9.43 nM.

As to `COc1ccc([C@H]2C[C@@H]2COc2nc(C)ncc2-c2nnn(C)n2)nc1` [Example 235, 4-(((1S,2S)-2-(5-methoxypyridin-2-yl)cyclopropyl)methoxy)-2-methyl-5-(2-methyl-2H-tetrazol-5-yl)pyrimidine], the Ki was determined as 21.5 nM.

For `CCn1nnc(-c2cnc(C)nc2OC[C@H]2C[C@@H]2c2ccc(OC)cn2)n1` [Example 236, 5-(2-ethyl-2H-tetrazol-5-yl)-4-(((1S,2S)-2-(5-methoxypyridin-2-yl)cyclopropyl)methoxy)-2-methylpyrimidine], the Ki turned out to be 19.4 nM.

As to `COc1ccc([C@H]2C[C@@H]2COc2nc(C)ncc2-c2nnn(C(F)F)n2)nc1` [Example 237, 5-(2-(difluoromethyl)-2H-tetrazol-5-yl)-4-(((1S,2S)-2-(5-methoxypyridin-2-yl)cyclopropyl)methoxy)-2-methylpyrimidine], the Ki worked out at 32.9 nM.

With `COc1ccc([C@H]2C[C@@H]2COc2nc(C)ncc2-c2cc(=O)[nH]n2C)nc1` [Example 238, 5-(4-(((1S,2S)-2-(5-methoxypyridin-2-yl)cyclopropyl)methoxy)-2-methylpyrimidin-5-yl)-1-methyl-1,2-dihydropyrazol-3-one], the Ki came to 22.9 nM.

As to `COc1ccc([C@H]2C[C@@H]2COc2nc(C)ncc2-c2cc(=O)n(C)n2C)nc1` [Example 239, 5-(4-(((1S,2S)-2-(5-methoxypyridin-2-yl)cyclopropyl)methoxy)-2-methylpyrimidin-5-yl)-1,2-dimethyl-1,2-dihydropyrazol-3-one], the Ki was found to be 7.7 nM.

Turning to `COc1ccc([C@H]2C[C@@H]2COc2nc(C)ncc2-c2cc(OC)nn2C)nc1` [Example 240, 5-(3-methoxy-1-methyl-1H-pyrazol-5-yl)-4-(((1S,2S)-2-(5-methoxypyridin-2-yl)cyclopropyl)methoxy)-2-methylpyrimidine], the Ki turned out to be 29.9 nM.

`COc1ccc([C@H]2C[C@@H]2COc2nc(C)ncc2-c2cc(=O)[nH][nH]2)nc1` [Example 241, 5-(4-(((1S,2S)-2-(5-methoxypyridin-2-yl)cyclopropyl)methoxy)-2-methylpyrimidin-5-yl)-1,2-dihydropyrazol-3-one]: the Ki came out at 0.9 nM.

In the case of `COc1ccc([C@H]2C[C@@H]2COc2nc(C)ncc2-c2c[nH]oc2=O)nc1` [Example 242, 4-(4-(((1S,2S)-2-(5-methoxypyridin-2-yl)cyclopropyl)methoxy)-2-methylpyrimidin-5-yl)isoxazol-5(2H)-one], the Ki worked out at 2.36 nM.

Take `COc1ccc([C@H]2C[C@@H]2COc2nc(C)ncc2-c2cn(C)oc2=O)nc1` [Example 243, 4-(4-(((1S,2S)-2-(5-methoxypyridin-2-yl)cyclopropyl)methoxy)-2-methylpyrimidin-5-yl)-2-methylisoxazol-5(2H)-one]: the Ki came to 6.59 nM.

As to `COc1ccc([C@H]2C[C@@H]2COc2nc(C)ncc2-c2cn(C)[nH]c2=O)nc1` [Example 244, 4-(4-(((1S,2S)-2-(5-methoxypyridin-2-yl)cyclopropyl)methoxy)-2-methylpyrimidin-5-yl)-1-methyl-1,2-dihydropyrazol-3-one], the Ki came out at 0.71 nM.

With `COc1ccc([C@H]2C[C@@H]2COc2nc(C)ncc2-c2c[nH]nn2)nc1` [Example 245, 4-(((1S,2S)-2-(5-methoxypyridin-2-yl)cyclopropyl)methoxy)-2-methyl-5-(1H-1,2,3-triazol-4-yl)pyrimidine], the Ki stood at 1.36 nM.

Turning to `COc1ccc([C@H]2C[C@@H]2COc2nc(C)ncc2-c2cnnn2C(F)F)nc1` [Example 246, 5-(3-(difluoromethyl)-3H-1,2,3-triazol-4-yl)-4-(((1S,2S)-2-(5-methoxypyridin-2-yl)cyclopropyl)methoxy)-2-methylpyrimidine], the Ki worked out at 6.6 nM.

Turning to `CCn1cc(-c2cnc(C)nc2OC[C@H]2C[C@@H]2c2ccc(OC)cn2)nn1` [Example 247, 5-(1-ethyl-1H-1,2,3-triazol-4-yl)-4-(((1S,2S)-2-(5-methoxypyridin-2-yl)cyclopropyl)methoxy)-2-methylpyrimidine], the Ki was 2.43 nM.
